Measurements from patent US20190308963A1, “HETEROCYCLIC COMPOUNDS AND USES THEREOF” (priority 2018, published 2019).
pIC50: −log10 of the molar value.

Legend:
[1] = molecular target: PI3Kα (p110α/p85α) (Homo sapiens, UniProt P42336); test: cell-free PI3K HTRF assay, PI3Kα
Experimental: (§4) Exemplary compounds of the invention were tested for inhibitory activity or potency against class I PI3Ks (p110α/p85α, p110β/p85α, p110δ/p85α and p110γ) using a cell-free based PI3K HTRF assay. This assay was used to detect the formation of the product 3,4,5-inositol triphosphate molecule (PIP3) by displacement of biotin-PIP3 from an energy transfer complex consisting of Europium labeled anti-GST monoclonal antibody, a GST-tagged pleckstrin homology (PH) domain, biotinylated PIP3 and Streptavidin-Allophycocyanin (APC). […] The PIP3 product formed by human PI3-Kinase activity displaces biotin-PIP3 from the complex resulting in a loss of energy transfer and thus a decrease in signal.
(§5) Human class I PI3K isoforms were co-expressed in a Baculovirus infected cell expression system. The PI3K isoforms were assayed in the presence of HEPES (50 mM, pH 7.0), NaN3 (0.02%), BSA (0.01%), orthovanadate (0.1 mM), and DMSO (1%). The exemplary compounds dissolved in DMSO were delivered into the kinase reaction mixture by Acoustic technology (Echo550; nanolitter range), and were pre-incubated for 10 min at room temperature before adding ATP (10 μM) to initiate the reaction. […] The emission ratio is converted into μM PIP3 production based on PIP3 standard curves, and the nonlinear regression to obtain the standard curve and IC50 values are performed using Graphpad Prism software.

[2] = molecular target: PI3Kβ (p110β/p85α) (Homo sapiens, UniProt P42338); test: cell-free PI3K HTRF assay, PI3Kβ
Experimental: as §4, §5

[3] = molecular target: T1, BRD4 (BD1) (Homo sapiens, UniProt O60885); test: AlphaScreen FRET binding assay, BRD4 (BD1); conditions: read-out: IC50 value for the inhibition of BRD4 (BD1)
T1 construct: recombinant human BRD4 (BD1; aa 44-170); purchased Reaction Biology Corporation (contract assay service); host or cells: E. coli
Experimental: (§1) Exemplary compounds of the invention were tested for inhibitory activity or potency against BRD4 (BD1) and BRD4 (BD2) using AlphaScreen FRET binding assay, and exemplary compounds of the invention were further tested for inhibitory activity or potency against class I PI3Ks (p110α/p85α, p110β/p85α, p110δ/p85α and p110γ) using a cell-free based .P13K HTRF assay. All assays were performed at Reaction Biology Corporation, One Great Valley Parkway, Suite 2, Malvem, Pa.
(§2) Exemplary compounds of the invention were tested for inhibitory activity or potency against BRD4 (BD1) and BRD4 (BD2) using AlphaScreen FRET binding assay. […] Briefly, donor beads coated with streptavidin were incubated with biotinylated histone H4 peptide (residues 1-21) containing KAc (K5/^8/12/16Ac). In the absence of inhibitor, the. His-tagged reader domain of BRD4 binds to KAc-histone H4 peptide, thereby recruiting acceptor beads coated with a nickel chelator. Binding potential is assessed by detecting light emission (520-620 nm) from acceptor beads following laser excitation (680 nm) of a photosensitizer within the donor beads that converts ambient oxygen to singlet oxygen.
(§3) All IC50 values were reported in unites of nM.

[4] = molecular target: PI3Kγ (p110γ) (Homo sapiens, UniProt P48736); test: cell-free PI3K HTRF assay, PI3Kγ
Experimental: as §4, §5

[5] = molecular target: PI3Kδ (p110δ/p85α) (Homo sapiens, UniProt O00329); test: cell-free PI3K HTRF assay, PI3Kδ
Experimental: as §4, §5

[6] = molecular target: T2, BRD4 (BD2) (Homo sapiens, UniProt O60885); test: AlphaScreen FRET binding assay, BRD4 (BD2); conditions: read-out: IC50 value for the inhibition of BRD4 (BD2)
T2 construct: recombinant human BRD4 (BD2; aa 349-460); purchased Reaction Biology Corporation (contract assay service); host or cells: E. coli
Experimental: as §1, §2, §3

[7] = system: class I PI3Ks; test: summary in words of the class I PI3K (and BRD4) results; assay type: biochemical, human; conditions: for overall activity in words (class I PI3Ks and BRD4): against both divergent targets; for activity against PI3K in words: novel BRD inhibitors without PI3K activity
Experimental: Exemplary compounds of the invention were tested for inhibitory activity or potency against class I PI3Ks (p110α/p85α, p110β/p85α, p110δ/p85α and p110γ) using a cell-free based PI3K HTRF assay. This assay was used to detect the formation of the product 3,4,5-inositol triphosphate molecule (PIP3) by displacement of biotin-PIP3 from an energy transfer complex consisting of Europium labeled anti-GST monoclonal antibody, a GST-tagged pleckstrin homology (PH) domain, biotinylated PIP3 and Streptavidin-Allophycocyanin (APC). Excitation of Europium in the complex results in an energy transfer to the APC and a fluorescent emission at 665 nm. The PIP3 product formed by human PI3-Kinase activity displaces biotin-PIP3 from the complex resulting in a loss of energy transfer and thus a decrease in signal.
Human class I PI3K isoforms were co-expressed in a Baculovirus infected cell expression system. The PI3K isoforms were assayed in the presence of HEPES (50 mM, pH 7.0), NaN3 (0.02%), BSA (0.01%), orthovanadate (0.1 mM), and DMSO (1%). The exemplary compounds dissolved in DMSO were delivered into the kinase reaction mixture by Acoustic technology (Echo550; nanolitter range), and were pre-incubated for 10 min at room temperature before adding ATP (10 μM) to initiate the reaction. After 30 min at 30° C., the reactions were quenched with a stop solution, incubated overnight with a detection mixture before measuring HTRF (Ex: 320 nm; Em: 615/665 nm). The emission ratio is converted into μM PIP3 production based on PIP3 standard curves, and the nonlinear regression to obtain the standard curve and IC50 values are performed using Graphpad Prism software.
All IC50 values were reported in unites of nM. Empty cells indicate no inhibition or compound activity that could not be fit to an IC50 curve.
Dual inhibitors of class I PI3Ks and BRD4 are rare because class I PI3Ks and BRD4 are two structurally and functionally unrelated targets. […] The unexpected dual inhibitory activity or potency against both divergent targets is attributed to not only the unusual overall shape of the molecules of the present invention (as described in U.S. Pat. No. 9,637,488), but also the specific KAc-mimicking groups selected and their position incorporated into the quinoline ring.

PI3Kγ (p110γ), sequence (P48736 whole entry): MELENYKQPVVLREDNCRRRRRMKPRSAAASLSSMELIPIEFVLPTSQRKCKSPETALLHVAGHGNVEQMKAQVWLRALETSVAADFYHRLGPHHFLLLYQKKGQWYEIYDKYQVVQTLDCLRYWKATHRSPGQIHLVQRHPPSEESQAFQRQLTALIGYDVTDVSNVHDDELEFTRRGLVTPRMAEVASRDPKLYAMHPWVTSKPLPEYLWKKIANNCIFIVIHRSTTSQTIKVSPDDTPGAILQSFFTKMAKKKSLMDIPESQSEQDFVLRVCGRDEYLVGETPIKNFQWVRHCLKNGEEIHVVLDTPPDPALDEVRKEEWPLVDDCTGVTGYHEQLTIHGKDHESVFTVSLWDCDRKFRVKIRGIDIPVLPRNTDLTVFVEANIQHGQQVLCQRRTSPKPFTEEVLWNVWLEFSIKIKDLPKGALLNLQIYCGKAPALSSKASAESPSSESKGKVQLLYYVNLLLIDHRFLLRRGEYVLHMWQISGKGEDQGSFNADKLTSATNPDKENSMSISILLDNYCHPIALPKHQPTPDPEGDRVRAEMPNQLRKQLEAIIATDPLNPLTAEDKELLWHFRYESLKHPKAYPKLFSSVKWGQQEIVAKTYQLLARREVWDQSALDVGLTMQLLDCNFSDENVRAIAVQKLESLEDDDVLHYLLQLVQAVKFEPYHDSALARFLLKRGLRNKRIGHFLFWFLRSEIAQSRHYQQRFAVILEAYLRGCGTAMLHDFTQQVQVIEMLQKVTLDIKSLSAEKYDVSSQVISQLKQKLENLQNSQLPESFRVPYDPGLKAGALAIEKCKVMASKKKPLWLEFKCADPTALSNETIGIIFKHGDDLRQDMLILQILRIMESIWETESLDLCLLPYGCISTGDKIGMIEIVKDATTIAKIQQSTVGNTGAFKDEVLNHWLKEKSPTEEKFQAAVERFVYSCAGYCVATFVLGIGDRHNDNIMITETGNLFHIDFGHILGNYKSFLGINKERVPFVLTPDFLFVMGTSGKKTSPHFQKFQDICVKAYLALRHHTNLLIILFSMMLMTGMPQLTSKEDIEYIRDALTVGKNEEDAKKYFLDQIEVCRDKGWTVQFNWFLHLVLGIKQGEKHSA
PI3Kβ (p110β/p85α), sequence (P42338 whole entry): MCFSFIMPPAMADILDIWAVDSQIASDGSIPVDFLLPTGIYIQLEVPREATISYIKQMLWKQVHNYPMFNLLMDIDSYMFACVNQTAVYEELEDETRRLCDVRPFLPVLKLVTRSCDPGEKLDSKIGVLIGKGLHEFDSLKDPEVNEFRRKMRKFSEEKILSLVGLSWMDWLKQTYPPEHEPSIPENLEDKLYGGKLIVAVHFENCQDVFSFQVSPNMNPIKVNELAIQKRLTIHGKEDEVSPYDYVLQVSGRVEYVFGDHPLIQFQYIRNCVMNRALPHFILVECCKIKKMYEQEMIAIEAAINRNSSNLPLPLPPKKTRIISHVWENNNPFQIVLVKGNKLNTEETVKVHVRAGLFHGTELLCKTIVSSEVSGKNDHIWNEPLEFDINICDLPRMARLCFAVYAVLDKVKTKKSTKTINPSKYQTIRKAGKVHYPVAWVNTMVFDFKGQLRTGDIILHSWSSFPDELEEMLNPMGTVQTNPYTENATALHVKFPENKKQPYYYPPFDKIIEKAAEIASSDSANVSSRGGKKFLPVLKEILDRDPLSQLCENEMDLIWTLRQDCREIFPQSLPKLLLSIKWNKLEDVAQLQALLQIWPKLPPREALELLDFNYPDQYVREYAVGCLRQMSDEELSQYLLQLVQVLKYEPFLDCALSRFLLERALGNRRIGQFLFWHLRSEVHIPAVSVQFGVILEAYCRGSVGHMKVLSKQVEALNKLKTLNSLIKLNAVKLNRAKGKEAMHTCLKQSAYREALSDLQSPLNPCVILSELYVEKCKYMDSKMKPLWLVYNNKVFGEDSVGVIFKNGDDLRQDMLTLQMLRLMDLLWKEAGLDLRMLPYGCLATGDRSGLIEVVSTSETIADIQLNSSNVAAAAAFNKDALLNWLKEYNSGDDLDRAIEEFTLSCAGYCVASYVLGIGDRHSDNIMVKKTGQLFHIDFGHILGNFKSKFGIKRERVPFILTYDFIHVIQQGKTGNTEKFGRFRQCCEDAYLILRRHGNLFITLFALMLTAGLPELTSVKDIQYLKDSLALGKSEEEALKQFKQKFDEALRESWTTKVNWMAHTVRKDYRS
PI3Kβ (p110β/p85α), sequence (P27986 whole entry partner): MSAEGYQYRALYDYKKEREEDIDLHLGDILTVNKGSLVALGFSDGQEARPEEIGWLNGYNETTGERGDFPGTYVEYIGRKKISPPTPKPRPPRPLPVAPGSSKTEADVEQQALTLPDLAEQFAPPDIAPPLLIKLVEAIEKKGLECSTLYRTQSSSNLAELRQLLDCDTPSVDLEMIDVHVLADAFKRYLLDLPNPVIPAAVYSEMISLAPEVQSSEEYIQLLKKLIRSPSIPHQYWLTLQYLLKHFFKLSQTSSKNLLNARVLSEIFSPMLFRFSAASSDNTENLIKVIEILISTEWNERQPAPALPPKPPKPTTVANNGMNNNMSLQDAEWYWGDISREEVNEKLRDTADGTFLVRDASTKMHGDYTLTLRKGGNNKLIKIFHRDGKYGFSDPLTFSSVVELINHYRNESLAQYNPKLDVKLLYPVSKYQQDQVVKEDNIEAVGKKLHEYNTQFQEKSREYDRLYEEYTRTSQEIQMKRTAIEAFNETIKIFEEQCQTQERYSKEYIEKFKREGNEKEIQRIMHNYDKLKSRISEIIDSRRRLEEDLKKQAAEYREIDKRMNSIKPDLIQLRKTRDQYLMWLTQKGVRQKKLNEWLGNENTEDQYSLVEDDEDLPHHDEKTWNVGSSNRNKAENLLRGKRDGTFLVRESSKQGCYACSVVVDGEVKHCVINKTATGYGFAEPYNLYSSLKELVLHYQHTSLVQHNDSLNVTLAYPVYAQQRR
PI3Kδ (p110δ/p85α), sequence (O00329 whole entry): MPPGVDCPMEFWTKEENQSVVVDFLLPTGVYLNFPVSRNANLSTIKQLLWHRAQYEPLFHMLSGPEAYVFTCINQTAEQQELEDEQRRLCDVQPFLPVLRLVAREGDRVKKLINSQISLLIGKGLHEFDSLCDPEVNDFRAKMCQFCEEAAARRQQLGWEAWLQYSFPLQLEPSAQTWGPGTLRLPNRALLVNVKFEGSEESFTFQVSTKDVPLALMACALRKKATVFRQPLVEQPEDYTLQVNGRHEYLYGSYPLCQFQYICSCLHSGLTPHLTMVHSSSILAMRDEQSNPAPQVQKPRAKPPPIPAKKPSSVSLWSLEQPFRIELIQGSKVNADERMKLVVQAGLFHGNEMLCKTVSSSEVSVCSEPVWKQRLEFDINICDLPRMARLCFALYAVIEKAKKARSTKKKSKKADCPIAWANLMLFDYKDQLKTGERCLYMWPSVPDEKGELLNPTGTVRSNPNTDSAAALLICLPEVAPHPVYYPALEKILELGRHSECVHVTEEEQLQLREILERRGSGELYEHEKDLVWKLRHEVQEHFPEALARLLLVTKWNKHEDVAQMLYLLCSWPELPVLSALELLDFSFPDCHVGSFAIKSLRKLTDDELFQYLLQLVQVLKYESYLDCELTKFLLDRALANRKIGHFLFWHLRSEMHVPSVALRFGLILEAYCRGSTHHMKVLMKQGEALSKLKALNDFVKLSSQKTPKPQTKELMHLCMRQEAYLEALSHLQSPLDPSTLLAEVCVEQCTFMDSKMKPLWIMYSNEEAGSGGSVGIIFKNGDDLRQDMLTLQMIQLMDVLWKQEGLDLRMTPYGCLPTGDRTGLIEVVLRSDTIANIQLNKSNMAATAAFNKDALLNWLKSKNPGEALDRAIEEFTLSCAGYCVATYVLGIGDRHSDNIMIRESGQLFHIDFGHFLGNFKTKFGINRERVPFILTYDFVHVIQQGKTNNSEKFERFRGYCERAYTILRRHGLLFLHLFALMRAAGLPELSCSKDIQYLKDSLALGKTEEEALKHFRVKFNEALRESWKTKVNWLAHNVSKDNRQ
PI3Kδ (p110δ/p85α), sequence (P27986 whole entry partner): as the sequence (P27986 whole entry partner) above
PI3Kα (p110α/p85α), sequence (P42336 whole entry): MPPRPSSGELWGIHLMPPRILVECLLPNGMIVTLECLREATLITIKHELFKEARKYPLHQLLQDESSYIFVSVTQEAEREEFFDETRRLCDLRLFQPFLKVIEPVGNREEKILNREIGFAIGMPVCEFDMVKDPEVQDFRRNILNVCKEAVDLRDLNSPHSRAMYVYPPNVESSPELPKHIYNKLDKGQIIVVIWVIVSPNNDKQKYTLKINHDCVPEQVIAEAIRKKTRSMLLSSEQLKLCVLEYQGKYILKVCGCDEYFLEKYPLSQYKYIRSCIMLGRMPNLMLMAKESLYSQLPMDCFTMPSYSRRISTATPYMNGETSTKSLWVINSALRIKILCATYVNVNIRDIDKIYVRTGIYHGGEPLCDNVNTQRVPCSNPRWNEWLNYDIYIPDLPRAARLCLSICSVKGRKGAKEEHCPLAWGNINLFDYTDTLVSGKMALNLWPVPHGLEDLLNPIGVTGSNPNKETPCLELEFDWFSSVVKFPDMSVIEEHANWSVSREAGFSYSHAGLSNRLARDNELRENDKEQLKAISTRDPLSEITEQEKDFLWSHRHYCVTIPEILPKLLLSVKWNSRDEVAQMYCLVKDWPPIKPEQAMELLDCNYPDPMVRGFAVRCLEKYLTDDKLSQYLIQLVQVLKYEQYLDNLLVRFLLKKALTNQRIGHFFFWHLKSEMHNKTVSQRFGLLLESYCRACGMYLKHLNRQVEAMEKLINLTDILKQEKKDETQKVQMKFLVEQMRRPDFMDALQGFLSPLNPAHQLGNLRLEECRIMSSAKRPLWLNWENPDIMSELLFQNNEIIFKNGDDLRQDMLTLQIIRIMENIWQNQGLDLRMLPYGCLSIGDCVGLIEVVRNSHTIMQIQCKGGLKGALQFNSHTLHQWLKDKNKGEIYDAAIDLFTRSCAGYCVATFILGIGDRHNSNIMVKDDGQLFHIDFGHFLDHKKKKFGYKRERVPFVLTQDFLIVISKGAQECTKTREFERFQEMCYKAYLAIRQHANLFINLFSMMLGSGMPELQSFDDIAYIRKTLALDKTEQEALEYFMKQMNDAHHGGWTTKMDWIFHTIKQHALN
PI3Kα (p110α/p85α), sequence (P27986 whole entry partner): as the sequence (P27986 whole entry partner) above

| Compound | pIC50 [1] | pIC50 [2] | pIC50 [3] | pIC50 [4] | pIC50 [5] | pIC50 [6] | overall activity in words (class I PI3Ks and BRD4) [7] | activity against PI3K in words [7] |
| --- | --- | --- | --- | --- | --- | --- | --- | --- |
| Cn1cc(-c2cccc3cc(C4CCCN4c4nc(N)nc(N)c4C#N)c(N4CCOCC4)nc23)c2cc[nH]c2c1=O (stereo not drawn) [Compound 21] | 7.27 | 6.93 | 7.61 | 8.70 | 8.43 | 7.74 | – | – |
| Cc1cc(-c2cccc3cc([C@@H]4CCCN4c4ncnc(N)c4C#N)c(N4CCOCC4)nc23)cn(C)c1=O [Compound 23] | 6.82 | 6.72 | 7.57 | 7.89 | 9.14 | 7.89 | – | – |
| Cc1cc(-c2c(F)ccc3cc(C4CCCN4c4nc(N)nc(N)c4C#N)c(N4CCOCC4)nc23)cn(C)c1=O (stereo not drawn) [Compound 13] | – | – | 6.10 | < 5.00 | – | 7.91 | inactive | – |
| Cn1cc(-c2cccc3cc([C@@H]4CCCN4c4nc(N)nc(N)c4C#N)c(N4CCOCC4)nc23)c2cc[nH]c2c1=O [Compound 24] | 7.74 | 7.27 | 7.90 | 8.84 | 9.03 | 8.04 | – | – |
| Cc1nnc2ccc(-c3cccc4cc(C5CCCN5c5ncnc(N)c5C#N)c(N5CCOCC5)nc34)nn12 (stereo not drawn) [Compound 10] | – | – | 5.40 | – | 7.52 | – | – | – |
| Cn1cc(-c2ccc3cc(C4CCCN4c4ncnc(N)c4C#N)c(N4CCOCC4)nc3c2)c2cc[nH]c2c1=O (stereo not drawn) [Compound 6] | – | – | 8.46 | – | – | – | – | PI3K-inactive |
| Cc1nnc2ccc(-c3ccc4cc(C5CCCN5c5ncnc(N)c5C#N)c(N5CCOCC5)nc4c3)nn12 (stereo not drawn) [Compound 7] | – | – | 6.16 | – | – | – | – | – |
| Cc1cc(-c2cccc3cc(C4CCCN4c4ncnc(N)c4C#N)c(N4CCOCC4)nc23)cn(C)c1=O (stereo not drawn) [Compound 11] | 6.61 | 6.25 | 7.62 | 7.25 | 8.27 | 7.07 | – | – |
| Cc1noc(C)c1-c1cccc2cc(C3CCCN3c3ncnc(N)c3C#N)c(N3CCOCC3)nc12 (stereo not drawn) [Compound 9] | – | – | 5.02 | – | 8.49 | – | – | – |
| CC(C)Nc1nc2c(-c3cn(C)c(=O)c4[nH]ccc34)cccc2cc1C1CCCN1c1ncnc(N)c1C#N (stereo not drawn) [Compound 22] | 6.26 | 5.45 | 6.20 | 6.77 | 7.71 | 7.13 | – | – |
| Cc1cc(-c2c(F)ccc3cc(C4CCCN4c4nc(N)nc5[nH]cnc45)c(N4CCOCC4)nc23)cn(C)c1=O (stereo not drawn) [Compound 14] | – | – | < 5.00 | – | – | 5.38 | – | – |
| Cc1cc(-c2ccc(F)c3cc(C4CCCN4c4ncnc(N)c4C#N)c(N4CCOCC4)nc23)cn(C)c1=O (stereo not drawn) [Compound 16] | – | – | – | – | – | 5.30 | inactive | – |
| Cc1cc(-c2ccc(F)c3cc(C4CCCN4c4nc(N)nc(N)c4C#N)c(N4CCOCC4)nc23)cn(C)c1=O (stereo not drawn) [Compound 17] | – | – | – | < 5.00 | – | 6.13 | – | – |
| Cc1cc(-c2cccc3cc(C4CCCN4c4ncnc(N)c4C#N)c(N4CCCCC4)nc23)cn(C)c1=O (stereo not drawn) [Compound 18] | 5.37 | 6.06 | 7.07 | 7.41 | 8.72 | 7.07 | – | – |
| Cc1cc(-c2c(F)ccc3cc(C4CCCN4c4ncnc(N)c4C#N)c(N4CCOCC4)nc23)cn(C)c1=O (stereo not drawn) [Compound 15] | – | – | 5.90 | – | – | 6.17 | – | – |
| Cc1cc(-c2cccc3cc(C4CCCN4c4ncnc(N)c4C#N)c(-c4cccnc4)nc23)cn(C)c1=O (stereo not drawn) [Compound 29] | 6.06 | 6.58 | 7.42 | 7.72 | 8.91 | 7.33 | – | – |
| Cc1nnc2ccc(N3CCN(c4nc5cc(F)ccc5cc4C4CCCN4c4ncnc(N)c4C#N)CC3)nn12 (stereo not drawn) [Compound 4, 4-amino-6-(2-(7-fluoro-2-(4-(3-methyl-[1,2,4]triazolo[4,3-b]pyridazin-6-yl)piperazin-1-yl)quinolin-3-yl)pyrrolidin-1-yl)pyrimidine-5-carbonitrile] | – | – | 5.10 | – | 9.18 | – | – | – |
| Cc1cc(-c2cccc3cc(C4CCCN4c4ncnc(N)c4C#N)c(-c4ccccc4)nc23)cn(C)c1=O (stereo not drawn) [Compound 28] | 5.99 | 6.45 | 6.35 | 7.93 | 8.81 | 6.83 | – | – |
| Cc1cc(-c2ccc3cc(C4CCCN4c4ncnc(N)c4C#N)c(N4CCOCC4)nc3c2)cn(C)c1=O (stereo not drawn) [Compound 8] | – | – | 7.55 | – | – | 8.11 | – | PI3K-inactive |
| Cn1cc(-c2cccc3cc(C4CCCN4c4ncnc(N)c4C#N)c(N4CCOCC4)nc23)c2cc[nH]c2c1=O (stereo not drawn) [Compound 12] | – | – | 7.46 | – | 8.30 | – | – | – |
| Cc1noc(C)c1-c1nc2c(C)cccc2cc1C1CCCN1c1ncnc(N)c1C#N (stereo not drawn) [Compound 3, 4-amino-6-(2-(2-(3,5-dimethylisoxazol-4-yl)-8-methylquinolin-3-yl)pyrrolidin-1-yl)pyrimidine-5-carbonitrile] | – | – | – | – | 9.28 | – | – | – |
| Cn1cc(-c2cccc3cc(CNc4nc(N)nc(N)c4C#N)c(N4CCOCC4)nc23)c2cc[nH]c2c1=O [Compound 25] | 7.69 | 7.36 | 7.26 | 7.78 | 8.70 | 7.68 | – | – |
| Cc1cc(-c2cccc3cc(C4CCCN4c4ncnc(N)c4C#N)c(N(C)C)nc23)cn(C)c1=O (stereo not drawn) [Compound 19] | 6.27 | 6.22 | 7.62 | 7.10 | 8.52 | 7.71 | – | – |
